Measured values as given in PubChem BioAssay (NCI).
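Briefly, cells in 96-well plates were exposed to five compound concentrations for 48 h, and endpoints were estimated by linear interpolation. TGI: total growth inhibition.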

Key:
Assay in all cases: NCI-60 cell line screen, 48 h
786-0 renal = tested on: 786-0 renal
A498 renal = tested on: A498 renal
A549 NSCLC = tested on: A549 NSCLC
ACHN renal = tested on: ACHN renal
BT-549 breast = tested on: BT-549 breast
CAKI-1 renal = tested on: CAKI-1 renal
CCRF-CEM leukemia = tested on: CCRF-CEM leukemia
COLO 205 colon = tested on: COLO 205 colon
DU-145 prostate = tested on: DU-145 prostate
EKVX NSCLC = tested on: EKVX NSCLC
HCT-116 colon = tested on: HCT-116 colon
HCT-15 colon = tested on: HCT-15 colon
HL-60(TB) leukemia = tested on: HL-60(TB) leukemia
HOP-62 NSCLC = tested on: HOP-62 NSCLC
HOP-92 NSCLC = tested on: HOP-92 NSCLC
HS 578T breast = tested on: HS 578T breast
HT29 colon = tested on: HT29 colon
IGROV1 ovarian = tested on: IGROV1 ovarian
K-562 leukemia = tested on: K-562 leukemia
KM12 colon = tested on: KM12 colon
LOX IMVI melanoma = tested on: LOX IMVI melanoma
M14 melanoma = tested on: M14 melanoma
MALME-3M melanoma = tested on: MALME-3M melanoma
MCF7 breast = tested on: MCF7 breast
MDA-MB-231 breast = tested on: MDA-MB-231 breast
MDA-MB-435 = tested on: MDA-MB-435
MOLT-4 leukemia = tested on: MOLT-4 leukemia
NCI-H226 lung = tested on: NCI-H226 lung
NCI-H23 lung = tested on: NCI-H23 lung
NCI-H460 lung = tested on: NCI-H460 lung
NCI/ADR-RES ovarian = tested on: NCI/ADR-RES ovarian
OVCAR-3 ovarian = tested on: OVCAR-3 ovarian
OVCAR-4 ovarian = tested on: OVCAR-4 ovarian
OVCAR-5 ovarian = tested on: OVCAR-5 ovarian
OVCAR-8 ovarian = tested on: OVCAR-8 ovarian
PC-3 prostate = tested on: PC-3 prostate
RPMI-8226 leukemia = tested on: RPMI-8226 leukemia
RXF 393 renal = tested on: RXF 393 renal
SF-268 CNS = tested on: SF-268 CNS
SF-295 CNS = tested on: SF-295 CNS
SF-539 CNS = tested on: SF-539 CNS
SK-MEL-2 melanoma = tested on: SK-MEL-2 melanoma
SK-MEL-28 melanoma = tested on: SK-MEL-28 melanoma
SK-MEL-5 melanoma = tested on: SK-MEL-5 melanoma
SK-OV-3 ovarian = tested on: SK-OV-3 ovarian
SN12C renal = tested on: SN12C renal
SNB-19 CNS = tested on: SNB-19 CNS
SNB-75 CNS = tested on: SNB-75 CNS
SW-620 colon = tested on: SW-620 colon
T-47D breast = tested on: T-47D breast
TK-10 renal = tested on: TK-10 renal
U251 CNS = tested on: U251 CNS
UACC-62 melanoma = tested on: UACC-62 melanoma
UO-31 renal = tested on: UO-31 renal
HCC-2998 colon = tested on: HCC-2998 colon
NCI-H522 lung = tested on: NCI-H522 lung
UACC-257 melanoma = tested on: UACC-257 melanoma

CCCOc1ccc2sc(NC(=O)c3cc([N+](=O)[O-])cc([N+](=O)[O-])c3)nc2c1
TGI (786-0 renal): > 100 µM | TGI (A498 renal): 76.9 µM | TGI (A549 NSCLC): > 100 µM | TGI (ACHN renal): > 100 µM | TGI (BT-549 breast): > 100 µM | TGI (CAKI-1 renal): > 100 µM | TGI (CCRF-CEM leukemia): > 100 µM | TGI (COLO 205 colon): > 100 µM | TGI (DU-145 prostate): > 100 µM | TGI (EKVX NSCLC): > 100 µM | TGI (HCT-116 colon): 89.7 µM | TGI (HCT-15 colon): > 100 µM | TGI (HL-60(TB) leukemia): > 100 µM | TGI (HOP-62 NSCLC): > 100 µM | TGI (HOP-92 NSCLC): 49.6 µM | TGI (HS 578T breast): 39.4 µM | TGI (HT29 colon): > 100 µM | TGI (IGROV1 ovarian): 35.7 µM | TGI (K-562 leukemia): > 100 µM | TGI (KM12 colon): > 100 µM | TGI (LOX IMVI melanoma): 68.3 µM | TGI (M14 melanoma): > 100 µM | TGI (MALME-3M melanoma): 79.3 µM | TGI (MCF7 breast): > 100 µM | TGI (MDA-MB-231 breast): > 100 µM | TGI (MDA-MB-435): > 100 µM | TGI (MOLT-4 leukemia): > 100 µM | TGI (NCI-H226 lung): > 100 µM | TGI (NCI-H23 lung): 82.3 µM | TGI (NCI-H460 lung): > 100 µM | TGI (NCI/ADR-RES ovarian): 61.5 µM | TGI (OVCAR-3 ovarian): 68.3 µM | TGI (OVCAR-4 ovarian): 58.8 µM | TGI (OVCAR-5 ovarian): > 100 µM | TGI (OVCAR-8 ovarian): > 100 µM | TGI (PC-3 prostate): > 100 µM | TGI (RPMI-8226 leukemia): > 100 µM | TGI (RXF 393 renal): > 100 µM | TGI (SF-268 CNS): > 100 µM | TGI (SF-295 CNS): > 100 µM | TGI (SF-539 CNS): > 100 µM | TGI (SK-MEL-2 melanoma): > 100 µM | TGI (SK-MEL-28 melanoma): > 100 µM | TGI (SK-MEL-5 melanoma): 48.8 µM | TGI (SK-OV-3 ovarian): > 100 µM | TGI (SN12C renal): > 100 µM | TGI (SNB-19 CNS): > 100 µM | TGI (SNB-75 CNS): 83.1 µM | TGI (SW-620 colon): > 100 µM | TGI (T-47D breast): > 100 µM | TGI (TK-10 renal): > 100 µM | TGI (U251 CNS): > 100 µM | TGI (UACC-62 melanoma): > 100 µM | TGI (UO-31 renal): 57.7 µM

NC(N)=Nc1ccc(CC(N)C(=O)NCC(=O)C(CC(=O)O)c2ncc(NC(=O)C(F)(F)F)o2)cc1 (stereo unspecified)
TGI (786-0 renal): > 25 µM | TGI (A498 renal): > 25 µM | TGI (A549 NSCLC): > 25 µM | TGI (ACHN renal): > 25 µM | TGI (BT-549 breast): > 25 µM | TGI (CAKI-1 renal): > 25 µM | TGI (CCRF-CEM leukemia): > 25 µM | TGI (COLO 205 colon): > 25 µM | TGI (DU-145 prostate): > 25 µM | TGI (EKVX NSCLC): > 25 µM | TGI (HCC-2998 colon): > 25 µM | TGI (HCT-116 colon): > 25 µM | TGI (HCT-15 colon): > 25 µM | TGI (HL-60(TB) leukemia): > 25 µM | TGI (HOP-62 NSCLC): > 25 µM | TGI (HS 578T breast): > 25 µM | TGI (HT29 colon): > 25 µM | TGI (IGROV1 ovarian): > 25 µM | TGI (KM12 colon): > 25 µM | TGI (LOX IMVI melanoma): > 25 µM | TGI (M14 melanoma): > 25 µM | TGI (MALME-3M melanoma): > 25 µM | TGI (MCF7 breast): > 25 µM | TGI (MDA-MB-231 breast): > 25 µM | TGI (MDA-MB-435): > 25 µM | TGI (NCI-H226 lung): > 25 µM | TGI (NCI-H23 lung): > 25 µM | TGI (NCI-H460 lung): > 25 µM | TGI (NCI-H522 lung): > 25 µM | TGI (NCI/ADR-RES ovarian): > 25 µM | TGI (OVCAR-3 ovarian): > 25 µM | TGI (OVCAR-4 ovarian): > 25 µM | TGI (OVCAR-5 ovarian): > 25 µM | TGI (OVCAR-8 ovarian): > 25 µM | TGI (PC-3 prostate): > 25 µM | TGI (RPMI-8226 leukemia): > 25 µM | TGI (RXF 393 renal): > 25 µM | TGI (SF-268 CNS): > 25 µM | TGI (SF-295 CNS): > 25 µM | TGI (SF-539 CNS): > 25 µM | TGI (SK-MEL-2 melanoma): > 25 µM | TGI (SK-MEL-28 melanoma): > 25 µM | TGI (SK-MEL-5 melanoma): > 25 µM | TGI (SK-OV-3 ovarian): > 25 µM | TGI (SN12C renal): > 25 µM | TGI (SNB-75 CNS): > 25 µM | TGI (SW-620 colon): > 25 µM | TGI (T-47D breast): > 25 µM | TGI (TK-10 renal): > 25 µM | TGI (U251 CNS): > 25 µM | TGI (UACC-257 melanoma): > 25 µM | TGI (UACC-62 melanoma): > 25 µM | TGI (UO-31 renal): > 25 µM

COC(=O)CCCC(=O)C1=Nc2ccccc2CN(c2ccc(Cl)cc2)N1
TGI (786-0 renal): > 100 µM | TGI (A498 renal): > 100 µM | TGI (A549 NSCLC): > 100 µM | TGI (ACHN renal): > 100 µM | TGI (BT-549 breast): > 100 µM | TGI (CAKI-1 renal): > 100 µM | TGI (CCRF-CEM leukemia): > 100 µM | TGI (COLO 205 colon): > 100 µM | TGI (DU-145 prostate): > 100 µM | TGI (EKVX NSCLC): > 100 µM | TGI (HCC-2998 colon): > 100 µM | TGI (HCT-116 colon): > 100 µM | TGI (HCT-15 colon): > 100 µM | TGI (HOP-62 NSCLC): > 100 µM | TGI (HOP-92 NSCLC): > 100 µM | TGI (HS 578T breast): > 100 µM | TGI (HT29 colon): > 100 µM | TGI (IGROV1 ovarian): > 100 µM | TGI (K-562 leukemia): > 100 µM | TGI (KM12 colon): > 100 µM | TGI (LOX IMVI melanoma): > 100 µM | TGI (M14 melanoma): > 100 µM | TGI (MCF7 breast): > 100 µM | TGI (MDA-MB-231 breast): > 100 µM | TGI (MDA-MB-435): > 100 µM | TGI (MOLT-4 leukemia): > 100 µM | TGI (NCI-H226 lung): > 100 µM | TGI (NCI-H23 lung): > 100 µM | TGI (NCI-H522 lung): > 100 µM | TGI (NCI/ADR-RES ovarian): > 100 µM | TGI (OVCAR-3 ovarian): > 100 µM | TGI (OVCAR-4 ovarian): 87.7 µM | TGI (OVCAR-5 ovarian): > 100 µM | TGI (OVCAR-8 ovarian): > 100 µM | TGI (PC-3 prostate): > 100 µM | TGI (RPMI-8226 leukemia): > 100 µM | TGI (RXF 393 renal): > 100 µM | TGI (SF-268 CNS): > 100 µM | TGI (SF-295 CNS): > 100 µM | TGI (SF-539 CNS): > 100 µM | TGI (SK-MEL-2 melanoma): > 100 µM | TGI (SK-MEL-28 melanoma): > 100 µM | TGI (SK-MEL-5 melanoma): > 100 µM | TGI (SK-OV-3 ovarian): > 100 µM | TGI (SN12C renal): > 100 µM | TGI (SNB-19 CNS): > 100 µM | TGI (SNB-75 CNS): > 100 µM | TGI (SW-620 colon): > 100 µM | TGI (T-47D breast): 49.5 µM | TGI (TK-10 renal): > 100 µM | TGI (U251 CNS): > 100 µM | TGI (UACC-257 melanoma): > 100 µM | TGI (UACC-62 melanoma): > 100 µM | TGI (UO-31 renal): > 100 µM
